In article PMC12271471, “Direct synthesis of mycophenolic acid aryl esters with antioxidant and antiproliferative properties” (Scientific Reports, 2025):

Experiments:
PBMCs = test: VPD450 proliferation test (flow cytometry) on PBMCs; type: cell-based, human; settings: for EC50: Homo sapiens, PBMC, PBMCs stimulated with anti-CD3/anti-CD28 beads, 72 h, mean ± SD; for SI selectivity index PBMCs (IC50/EC50): ratio between IC50 (XTT) and EC50 (VPD450) on PBMCs
Method: These values indicate the concentration of any compound at which proliferation of PBMCs (healthy cells), and T-Jurkat cells (T-cell leukemia), is inhibited by 50% compared to the control. Cells were treated with the compounds for 72 h (PBMCs) or 48 h (T-Jurkat), followed by a […] VPD450 test. The results are presented in ESI Fig. S3 as proliferation curves concerning concentration.
ESI Figure 3. Concentration-dependent change in proliferation under the treatment of ester derivatives of MPA. (A) VPD450-labelled PBMCs were cultured in the presence of different concentrations (100; 50; 25; 10; 1; 0.1, and 0.01 μM) of MPA, MMF, and ester derivatives, and stimulated with magnetic beads coated with anti-CD3 and anti-CD28 antibodies for 72 hours. (B) VPD450-labelled T-Jurkat cells were cultured in the presence of different concentrations (100; 10; 1; 0.1 and 0.01 μM) of MPA and ester derivatives for 48 hours. The plots were separated based on the type of ester derivative (P or MP). Cell proliferation was analyzed using flow cytometry. The results are expressed […]
(§1) (1 picture or pasted object on this page, not shown here) […]
(§2) inhibited cell viability by more than 50%. Each experiment was conducted in triplicate, and the final […]
(§3) VPD450 dye-based in vitro cell proliferation test
PBMCs and T-Jurkat cells were washed twice with warm PBS (37°C), re-suspended in fresh PBS at a final concentration of 10-30∙10^6 cells/ml, and labelled with 1 µl of VPD450 (BD Biosciences) at 37°C for 15 minutes, with vortexing every 5 minutes to ensure uniform staining. Subsequently, cells were washed with PBS, then with the complete medium (X-VIVO20 for PBMCs and RPMI-1640 for T-Jurkat cells), next re-suspended in fresh complete medium and seeded into 96-well plates at a concentration of 1∙10^6 cells per well. PBMCs were additionally stimulated with magnetic beads coated with anti-CD3 and anti-CD28 antibodies (Invitrogen) at a 2:1 cell-to-bead ratio. To the experimental wells, 100 µl of the MPA derivatives were added to achieve final concentrations of 50, 25, 10, 5, 1, 0.1, and 0.01 µM. In parallel, control wells containing stained but unstimulated cells and stained, stimulated cells were prepared at the same concentration. Cell proliferation was analyzed using an LSRFortessa flow cytometer (BD Biosciences) and Kaluza C Flow Cytometry Analysis Software (Beckman Coulter). […]
(§4) Statistical analysis was conducted using GraphPad Prism 9 (GraphPad Software Inc).
(§5) Differences between MMF, MPA and its new derivatives were assessed using a two-tailed unpaired Student’s t-test, with statistical significance defined as p < 0.05. EC50 and IC50 values were determined by fitting data to a four-parameter non-linear regression model in GraphPad Prism 9. Statistical significance was evaluated using the t-test.

[1] = system: IMPDH (PBMC proliferation); test: GMP test: PBMC proliferation with or without guanosine source (IMPDH inhibition); type: cell-based, human; settings: for PBMC proliferation upon GMP addition (reversal of inhibition): with 50 µM GMP
Method: ESI Figure 4. Antiproliferative activity of MPA, MMF, and various esters of MPA in the presence of guanosine source — role of IMPDH inhibiton. VPD450-labeled human PBMCs, in the presence of different concentrations (50; 25; 10; 1, and 0.1 μM) of MPA, MMF, and esters, and stimulated (magnetic beads coated with anti-CD3 and anti-CD28 antibodies) were cultured with or without the addition of 50 μM GMP for 72 h. Cell proliferation was analyzed […]
as §1, §2, §3
PBMCs and T-Jurkat cells were washed twice with warm PBS (37°C), re-suspended in fresh PBS at a final concentration of 10-30∙10^6 cells/ml, and labelled with 1 µl of VPD450 (BD Biosciences) at 37°C for 15 minutes, with vortexing every 5 minutes to ensure uniform staining. Subsequently, cells were washed with PBS, then with the complete medium (X-VIVO20 for PBMCs and RPMI-1640 for T-Jurkat cells), next re-suspended in fresh complete medium and seeded into 96-well plates at a concentration of 1∙10^6 cells per well. PBMCs were additionally stimulated with magnetic beads coated with anti-CD3 and anti-CD28 antibodies (Invitrogen) at a 2:1 cell-to-bead ratio. To the experimental wells, 100 µl of the MPA derivatives were added to achieve final concentrations of 50, 25, 10, 5, 1, 0.1, and 0.01 µM. In parallel, control wells containing stained but unstimulated cells and stained, stimulated cells were prepared at the same concentration. Cell proliferation was analyzed using an LSRFortessa flow cytometer (BD Biosciences) and Kaluza C Flow Cytometry Analysis Software (Beckman Coulter).
The data were expressed as EC50 values for compounds that inhibited more than 50% of cell […]
Enzyme inhibition in the presence of guanosine source (GMP test)
PBMCs were suspended in a 15 mL centrifuge tube at a concentration of 10-30 × 10⁶ cells in 1 mL of PBS, then, 2 μL of 1 mM VPD 450 dye solution was added, incubated for 15 min at 37°C, washed with a 9-fold volume of warm PBS and centrifuged at 400 x g for 5 min. Then, the cells were suspended in 10 mL of X-VIVO medium with 10% FBS and centrifuged again at 400 x g for 5 min. After suspending the cells in the complete medium, the staining level was checked using flow cytometry. The cells thus obtained were stimulated with anti-CD3/anti-CD28 antibodies as described previously (see VPD450 dye-based in vitro cell proliferation test). To perform the GMP test, a proper amount of GMP was added to each well to reach its final concentration of 50 μM, and then incubated for 72 hours. Proliferative activity was tested in the presence of various concentrations of compounds (50; 25; 10; 1 and 0.1 μM; MPA and selected amide derivatives) or without their addition. Cell proliferation was assessed using […]
as §4, §5

Structure (SMILES) | EC50 (PBMCs) [nM] | SI selectivity index PBMCs (IC50/EC50) (PBMCs) | Inhibition of PBMC proliferation ([1]; 50 µM) | Inhibition of PBMC proliferation ([1]; 50 µM compound, without GMP, 72 h) | PBMC proliferation upon GMP addition (reversal of inhibition) ([1]; 50 µM compound, 72 h) | inhibition at 50 µM ([1]; Homo sapiens, PBMC, 50 µM compound, without GMP, 72 h) [%]
COc1cc(C=O)cc(OC)c1OC(=O)CC/C(C)=C/Cc1c(O)c2c(c(C)c1OC)COC2=O [MP3] | 13742 ± 5 | 0.770 |  |  |  | 
COc1c(C)c2c(c(O)c1C/C=C(\C)CCC(=O)Oc1ccc(C=O)cc1)C(=O)OC2 [P5] | 1656 ± 3 | 6.007 |  |  |  | 
COc1ccccc1OC(=O)CC/C(C)=C/Cc1c(O)c2c(c(C)c1OC)COC2=O [MP1] | 1106 ± 4 | 13.365 |  |  |  | 
COc1c(C)c2c(c(O)c1C/C=C(\C)CCC(=O)O)C(=O)OC2 [MPA, Mycophenolic acid] | 1154 ± 6 | 16.232 | near-complete inhibition |  |  | 
COc1c(C)c2c(c(O)c1C/C=C(\C)CCC(=O)OCCN1CCOCC1)C(=O)OC2 [MMF, mycophenolate mofetil, reference compound] | 1037 ± 6 | 16.020 |  | near-complete inhibition |  | 
COc1cccc(OC)c1OC(=O)CC/C(C)=C/Cc1c(O)c2c(c(C)c1OC)COC2=O [MP2] | 5395 ± 6 | 4.174 |  |  |  | 
COC(=O)/C=C/c1ccc(OC(=O)CC/C(C)=C/Cc2c(O)c3c(c(C)c2OC)COC3=O)c(OC)c1 [MP7] | 7734 ± 7 | 3.935 |  |  |  | 
COc1c(C)c2c(c(O)c1C/C=C(\C)CCC(=O)Oc1ccc3c(c1)OCO3)C(=O)OC2 [P1] | 1152 ± 4 | 108.919 |  |  | reversed | ~80
C/C=C/c1ccc(OC(=O)CC/C(C)=C/Cc2c(O)c3c(c(C)c2OC)COC3=O)c(OC)c1 [MP9] | 2356 ± 3 | 8.978 |  |  | comparable pattern | 
COc1c(C)c2c(c(O)c1C/C=C(\C)CCC(=O)Oc1cc(C)ccc1C(C)C)C(=O)OC2 [P2] | 1417 ± 3 | 11.538 |  |  |  | 
C=CCc1ccc(OC(=O)CC/C(C)=C/Cc2c(O)c3c(c(C)c2OC)COC3=O)c(OC)c1 [MP8] | 1154 ± 3 | 15.409 |  |  |  | 
COC(=O)/C=C/c1ccccc1OC(=O)CC/C(C)=C/Cc1c(O)c2c(c(C)c1OC)COC2=O [P4] | 4865 ± 4 | 5.321 |  |  | comparable pattern | 
COc1cc(C=O)ccc1OC(=O)CC/C(C)=C/Cc1c(O)c2c(c(C)c1OC)COC2=O [MP4] | 2900 ± 5 | 8.098 |  |  |  | 
COc1c(C)c2c(c(O)c1C/C=C(\C)CCC(=O)Oc1ccc(CCC(C)=O)cc1)C(=O)OC2 [P7] | 1047 ± 6 | 48.036 |  |  | comparable pattern | 
